Measurements taken from patent publication US20230181632A1 (CHEMAS CO., LTD., priority 2020, published 2023).
Read-outs that look alike come from different tables or passages of the source.

What was measured:
[1] = test system: Vero E6 cells; assay: MTT cytotoxicity assay; type: cell-based, African green monkey; conditions: 48 hours
Method: Vero E6 cells, which are derived from kidney cells extracted from an African green monkey, were seeded at a density of 1×10^4 cells/well into 96-well plates and incubated overnight in DMEM (Dulbecco's modified Eagle's medium) supplemented with glucose, 10% FBS (fetal bovine serum), 1% PS (penicillin+streptomycin), 1% L-glutamine 200 mM, 1% sodium pyruvate 100 mM, and nonessential amino acids before being washed with a PBS buffer.
Cytotoxicity was examined through an MTT assay. The MTT assay is a colorimetric assay for assessing cytotoxicity or viability by taking advantage of the mitochondrial ability to convert the yellow water-soluble substrate MTT tetrazolium into purple insoluble formazan product […] by the action of oxidoreductase enzymes present in mitochondria of living cells.
The cultured Vero E6 cells were seeded into 96-well plates. A 1% (w/v) solution of tetraarsenic hexoxide (As4O6) in distilled water was 1,000- to 20,000-fold diluted (As4O6 25.27 μM-1.26 μM) in DMEM and each of the dilutions was applied to the 96-well plates in duplicate, followed by incubation for 48 hours. […] Incubation at room temperature for 15 minutes made the formazan crystals completely dissolved, followed by reading absorbance at 570 nm (A570 nm) on a microplate.

[2] = test system: SARS-CoV-2; type: cell-based
[3] = test system: SARS-CoV-2-infected Vero E6 cells; type: cell-based, African green monkey; conditions: 2,000-fold diluted, 36 or 72 hours
[4] = test system: Vero E6 cells; type: cell-based, African green monkey; conditions: same RNA samples as transcriptomic assay, normalized to 18s rRNA
[5] = […], 3,000-fold diluted (8.42 μM), 3 days, Vero E6
[6] = […], 4,000-fold diluted (6.32 μM), 3 days, Vero E6

O1[As]2O[As]3O[As]1O[As](O2)O3 [tetraarsenic hexoxide]
Cytotoxicity (MTT) ([1]; 1% (w/v) solution, 2,000-fold or greater dilutions): the cells survived and did not undergo cell death
Cytotoxicity (MTT) ([1]; 1% (w/v) solution, up to 1,000-fold dilution (25.27 μM)): exhibited cytotoxicity leading to cell death
% Inhibition of CPE [2]: 100%
% Inhibition of CPE (cytopathic effect) [2]: 100%
% Inhibition of CPE [2, 5]: 87.5% (7/8well)
% Inhibition of CPE (cytopathic effect) [2, 5]: 37.5% (3/8well)
% Inhibition of CPE [2, 6]: 87.5% (7/8well)
% Inhibition of CPE (cytopathic effect) [2, 6]: 37.5% (3/8well)
inhibition against viral growth ([2]; […], across tested dilutions): 87-100%
expression of the cytokine genes CSF1, PDGFA, PDGFB, CXCL1, CXCL2, CXCL3, CXCL8, CXCL10, CCL2, and CCL20 (transcriptome) [3]: remarkably downregulated
expression of the gene ZFAND2A (transcriptome) [3]: increased
expression of the genes BAGS, HSPA1B, CRYAB, HMOX1, and HSPH1 (transcriptome) [3]: upregulated
expression of the genes BAG3, CRYAB, HSPH1, HMOX1 and ZFAND2A (RT-PCR) [4]: upregulated expressions
